Key:
[1] = tested on: carrageenan-induced hind paw edema; experiment: Carrageenan-induced hind paw edema model; assay type: in vivo, mice
Procedure: Locally bred balb/c mice of both sexes (30-35 g) were purchased from the animal breeding laboratories of Inonu University ([…], Turkey). The animals were fed a standard pellet diet and water ad libitum in a temperature-controlled room. On the day before the treatments, food was withdrawn, but the animals were allowed free access of water. The allocation of animals to different groups was randomized, and the experiments were carried out under blind conditions. Mice used in the present study were cared for in accordance with the directory of the Inonu University Animal Care Unit, which applies the guidelines of the National Institutes of Health on laboratory animal welfare. Procedures involving animals and their care were conducted in conformity with international laws and policies and animal studies accepted by Inonu University Ethical Council (2011/A17). Test samples, suspended in a mixture of distilled water and 0.5% sodium carboxymethyl cellulose (CMC), were given orally to the animals. The control group animals received the same experimental handling as those of the test groups, except that the drug treatment was replaced with appropriate volumes of the dosing vehicle. […] For the preliminary activity screening, each test group was composed of four mice. […] Because of the daily changing circumstance, we used another control group for each experiment. For the determination of the effects on carrageenan-induced paw oedema, the modified method of Kasahara et al. was employed. One hour after the oral administration of either test sample or dosing vehicle, each mouse was injected with a freshly prepared (0.5 mg/25 μL) suspension of carrageenan (Sigma, St. Louis, MO, USA) in physiological saline (154 mM NaCl). The subplantar tissue of the right hind paw was the injection site for all mice. The contralateral paw (left hind paw) was injected with 25 μL saline solution as the internal control. […] The difference in footpad thickness between the right and left foot indicated the degree of inflammation for each mouse. The change in paw volume, either increase or decrease, was calculated and compared with the control group (dosing vehicle) and analyzed using statistical methods.

[2] = tested on: acetic acid-induced abdominal constriction; experiment: Acetic acid-induced writhing (Koster) test; assay type: in vivo, mice; details: for analgesic activity (in words): 100 mg/kg; for Writhing test (% inh.) / Writhing test (Mean ± SEM): 100 mg/kg oral; for Writhing test (Mean ± SEM): writhings counted 10 min from 5 min after acetic acid
Procedure: Test samples, suspended in a mixture of distilled water and 0.5% sodium carboxymethyl cellulose (CMC), were given orally to the animals. The control group animals received the same experimental handling as those of the test groups, except that the drug treatment was replaced with appropriate volumes of the dosing vehicle. […] One hour after oral administration of test sample, each mouse was injected intraperitoneally with 3% (w/v) acetic acid solution (0.1 mL/10 g, bw). Starting 5 min after the acetic acid injection, the number of muscular contractions on mice were counted for a period of 10 min. A significant reduction in the number of writhings by any treatment as compared to the number of writhings in control animals was considered a positive analgesic response. The analgesic activity was expressed as a percentage change from writhing controls. ASA was used as a reference compound and administered at 200 mg/kg.

stomach = experiment: Gastric-ulcerogenic effect (ulcer score); assay type: in vivo, mice; details: 200 mg/kg p.o.; animals with lesions/animals
[3] = tested on: lipid peroxidation in stomach; experiment: Lipid peroxidation in stomach (TBARS); assay type: in vivo, mice; details: 100 mg/kg, 8 h after analgesic test
[4] = biological target: T1, HCV NS5B RNA dependent RNA polymerase (Hepatitis C virus genotype 1b, UniProt P26663); experiment: NS5B inhibition assay (primer dependent elongation, poly rA-U12); assay type: biochemical; details: read-out: Anti-NS5B Activity (% Inh., 100 µM)
T1 construct: HCV NS5B RNA dependent RNA polymerase activity
T1 sequence (P26663 2420-3010): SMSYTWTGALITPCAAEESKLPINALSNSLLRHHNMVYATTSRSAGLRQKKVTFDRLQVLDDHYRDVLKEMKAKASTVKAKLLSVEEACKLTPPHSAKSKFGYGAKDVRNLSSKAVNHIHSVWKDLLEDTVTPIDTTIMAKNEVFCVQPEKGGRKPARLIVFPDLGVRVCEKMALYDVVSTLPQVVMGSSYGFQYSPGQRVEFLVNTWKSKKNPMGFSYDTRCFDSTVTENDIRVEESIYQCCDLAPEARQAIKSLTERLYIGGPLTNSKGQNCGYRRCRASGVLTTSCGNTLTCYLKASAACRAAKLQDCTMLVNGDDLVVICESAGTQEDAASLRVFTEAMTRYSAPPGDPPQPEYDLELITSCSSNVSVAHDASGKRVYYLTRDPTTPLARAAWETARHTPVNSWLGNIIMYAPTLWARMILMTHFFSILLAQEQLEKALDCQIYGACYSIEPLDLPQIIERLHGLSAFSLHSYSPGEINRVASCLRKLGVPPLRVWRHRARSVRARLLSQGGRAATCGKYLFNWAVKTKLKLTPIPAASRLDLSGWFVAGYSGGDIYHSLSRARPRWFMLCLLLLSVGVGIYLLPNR
Procedure: The compounds 1a–e and 2a–e were reconstituted in DMSO as 50 mM stocks, and serially diluted in DMSO to obtain working stocks. Wedelolactone, a known inhibitor of HCV NS5B activity, was employed as a reference compound. Preliminary screening was carried out at 100 μM to identify a wider range of compounds.
All synthesized compounds were evaluated for their effect on HCV NS5B RNA dependent RNA polymerase activity in primer dependent elongation assays as previously described. Activity of NS5B in the absence of the inhibitor but containing an equivalent amount of DMSO (control reaction) was set at 100% and that in the presence of the inhibitor was quantified relative to this control.

Question: For `Cc1ccc(-c2cc(C(F)(F)F)nn2-c2ccc(S(=O)(=O)/N=C3\SCC(=O)N3Cc3ccccc3)cc2)cc1` [Compound 2c, N-(3-Benzyl-4-oxo-1,3-thiazolidin-2-yldene)-4-[5-(4-methylphenyl)-3-(trifluoromethyl)-1H-pyrazol-1-yl]benzenesulfonamide], which “Swelling in thickness ± SEM” value ([1]; 50 mg/kg per os, 90 min) is on record?
Answer: 65.0 ± 6.1 × 10^−2 mm

Question: What about the percent inhibitory activity ([1]; 50 mg/kg per os, 90 min) of the same molecule?
Answer: 9.7%

Question: What about the “Swelling in thickness ± SEM” value ([1]; 50 mg/kg per os, 180 min) of the same molecule?
Answer: 74.0 ± 8.8 × 10^−2 mm

Question: What about the percent inhibitory activity ([1]; 50 mg/kg per os, 180 min) of the same molecule?
Answer: 19.5%

Question: And the “Swelling in thickness ± SEM” value ([1]; 50 mg/kg per os, 270 min)?
Answer: 95.0 ± 10.0 × 10^−2 mm

Question: And the percent inhibitory activity ([1]; 50 mg/kg per os, 270 min)?
Answer: 21.4%

Question: And the “Swelling in thickness ± SEM” value ([1]; 50 mg/kg per os, 360 min)?
Answer: 110.0 ± 7.1 × 10^−2 mm

Question: And the percent inhibitory activity ([1]; 50 mg/kg per os, 360 min)?
Answer: 14.7%

Question: And the “Swelling in thickness ± SEM” value ([1]; 100 mg/kg per os, 90 min)?
Answer: 83.4 ± 8.7 × 10^−2 mm

Question: What about the “Swelling in thickness ± SEM” value ([1]; 100 mg/kg per os, 180 min) of the same molecule?
Answer: 90.6 ± 11.7 × 10^−2 mm

Question: What about the “Swelling in thickness ± SEM” value ([1]; 100 mg/kg per os, 270 min) of the same molecule?
Answer: 91.7 ± 16.7 × 10^−2 mm

Question: And the percent inhibitory activity ([1]; 100 mg/kg per os, 270 min)?
Answer: 24.2%

Question: And the “Swelling in thickness ± SEM” value ([1]; 100 mg/kg per os, 360 min)?
Answer: 118.2 ± 7.1 × 10^−2 mm

Question: And the percent inhibitory activity ([1]; 100 mg/kg per os, 360 min)?
Answer: 8.3%

Question: And the “Swelling in thickness ± SEM” value ([1]; 200 mg/kg per os, 90 min)?
Answer: 69.5 ± 8.3 × 10^−2 mm

Question: What about the percent inhibitory activity ([1]; 200 mg/kg per os, 90 min) of the same molecule?
Answer: 3.4%

Question: And the “Swelling in thickness ± SEM” value ([1]; 200 mg/kg per os, 180 min)?
Answer: 75.6 ± 8.3 × 10^−2 mm

Question: And the percent inhibitory activity ([1]; 200 mg/kg per os, 180 min)?
Answer: 17.8%

Question: And the “Swelling in thickness ± SEM” value ([1]; 200 mg/kg per os, 270 min)?
Answer: 133.2 ± 14.3 × 10^−2 mm

Question: And the “Swelling in thickness ± SEM” value ([1]; 200 mg/kg per os, 360 min)?
Answer: 120.1 ± 5.3 × 10^−2 mm

Question: What about the percent inhibitory activity ([1]; 200 mg/kg per os, 360 min) of the same molecule?
Answer: 6.9%

Question: And the “analgesic activity (in words)” value [2]?
Answer: not statistically significant

Question: What about the “Writhing test (% inh.)” value [2] of the same molecule?
Answer: 32.2%

Question: What about the “Writhing test (Mean ± SEM)” value [2] of the same molecule?
Answer: 11.8 ± 1.4

Question: And the Ulcer score (stomach)?
Answer: 0/5

Question: And the Lipid peroxidation [3]?
Answer: 330.4 ± 9.7 nmol TBARS/g wet weight

Question: What about the inhibition at 100 µM [4] of the same molecule?
Answer: 19.4%

Question: What about the melting point of the same molecule?
Answer: 250 °C

Question: Which “Swelling in thickness ± SEM” value ([1]; 50 mg/kg per os, 90 min) does the source give for `Cc1ccc(-c2cc(C(F)(F)F)nn2-c2ccc(S(=O)(=O)/N=C3\SCC(=O)N3c3ccc([N+](=O)[O-])cc3)cc2)cc1` [Compound 2d, N-[3-(4-Nitrophenyl)-4-oxo-1,3-thiazolidin-2-yldene)-4-[5-(4-methylphenyl)-3-(trifluoromethyl)-1H-pyrazol-1-yl]benzenesulfonamide] here?
Answer: 47.0 ± 3.3 × 10^−2 mm

Question: What about the percent inhibitory activity ([1]; 50 mg/kg per os, 90 min) of the same molecule?
Answer: 34.7%

Question: What about the “Swelling in thickness ± SEM” value ([1]; 50 mg/kg per os, 180 min) of the same molecule?
Answer: 47.0 ± 3.7 × 10^−2 mm

Question: What about the percent inhibitory activity ([1]; 50 mg/kg per os, 180 min) of the same molecule?
Answer: 48.9%

Question: And the “Swelling in thickness ± SEM” value ([1]; 50 mg/kg per os, 270 min)?
Answer: 89.0 ± 6.5 × 10^−2 mm

Question: And the percent inhibitory activity ([1]; 50 mg/kg per os, 270 min)?
Answer: 26.4%

Question: And the “Swelling in thickness ± SEM” value ([1]; 50 mg/kg per os, 360 min)?
Answer: 110.0 ± 6.7 × 10^−2 mm

Question: And the percent inhibitory activity ([1]; 50 mg/kg per os, 360 min)?
Answer: 14.7%

Question: And the “Swelling in thickness ± SEM” value ([1]; 100 mg/kg per os, 90 min)?
Answer: 73.2 ± 11.1 × 10^−2 mm

Question: What about the “Swelling in thickness ± SEM” value ([1]; 100 mg/kg per os, 180 min) of the same molecule?
Answer: 100.6 ± 5.8 × 10^−2 mm

Question: What about the “Swelling in thickness ± SEM” value ([1]; 100 mg/kg per os, 270 min) of the same molecule?
Answer: 98.2 ± 16.7 × 10^−2 mm

Question: And the percent inhibitory activity ([1]; 100 mg/kg per os, 270 min)?
Answer: 21.6%

Question: What about the “Swelling in thickness ± SEM” value ([1]; 100 mg/kg per os, 360 min) of the same molecule?
Answer: 120.9 ± 9.3 × 10^−2 mm

Question: What about the percent inhibitory activity ([1]; 100 mg/kg per os, 360 min) of the same molecule?
Answer: 6.3%

Question: What about the “Swelling in thickness ± SEM” value ([1]; 200 mg/kg per os, 90 min) of the same molecule?
Answer: 80.6 ± 9.4 × 10^−2 mm

Question: What about the “Swelling in thickness ± SEM” value ([1]; 200 mg/kg per os, 180 min) of the same molecule?
Answer: 86.0 ± 9.4 × 10^−2 mm

Question: What about the percent inhibitory activity ([1]; 200 mg/kg per os, 180 min) of the same molecule?
Answer: 6.5%

Question: What about the “Swelling in thickness ± SEM” value ([1]; 200 mg/kg per os, 360 min) of the same molecule?
Answer: 108.6 ± 5.6 × 10^−2 mm

Question: And the percent inhibitory activity ([1]; 200 mg/kg per os, 360 min)?
Answer: 15.8%

Question: What about the “anti-inflammatory activity (in words)” value ([1]; all doses, all measurement intervals) of the same molecule?
Answer: moderate-to-good

Question: And the “analgesic activity (in words)” value [2]?
Answer: not statistically significant

Question: And the “Writhing test (% inh.)” value [2]?
Answer: 31%

Question: What about the “Writhing test (Mean ± SEM)” value [2] of the same molecule?
Answer: 12.0 ± 2.6

Question: What about the Ulcer score (stomach) of the same molecule?
Answer: 0/5

Question: And the Lipid peroxidation [3]?
Answer: 350.2 ± 9.9 nmol TBARS/g wet weight

Question: What about the inhibition at 100 µM [4] of the same molecule?
Answer: 31.3%

Question: And the melting point?
Answer: 270 to 272 °C
